Experimental data published in PMC12624712 (ACS Infectious Diseases, 2025).
Where two headings read alike, the source gives them in different places.

What was measured:
in vitro = conditions: African green monkey
RVFV strain ZH-548 = test: microbe, parasite or virus in culture; assay type: cell-based; conditions: for IC50: Rift Valley fever virus
RVFV L protein = RVFV L protein (Rift valley fever virus, UniProt P27316); test: cell-based
[1] = Vero C1008, 72 h, read-out: IC50, cytopathic effect reduction assay
[2] = Vero C1008, read-out: IC50: 95% CI, CPE reduction assay

Chain of RVFV L protein (P27316 whole entry, looked up): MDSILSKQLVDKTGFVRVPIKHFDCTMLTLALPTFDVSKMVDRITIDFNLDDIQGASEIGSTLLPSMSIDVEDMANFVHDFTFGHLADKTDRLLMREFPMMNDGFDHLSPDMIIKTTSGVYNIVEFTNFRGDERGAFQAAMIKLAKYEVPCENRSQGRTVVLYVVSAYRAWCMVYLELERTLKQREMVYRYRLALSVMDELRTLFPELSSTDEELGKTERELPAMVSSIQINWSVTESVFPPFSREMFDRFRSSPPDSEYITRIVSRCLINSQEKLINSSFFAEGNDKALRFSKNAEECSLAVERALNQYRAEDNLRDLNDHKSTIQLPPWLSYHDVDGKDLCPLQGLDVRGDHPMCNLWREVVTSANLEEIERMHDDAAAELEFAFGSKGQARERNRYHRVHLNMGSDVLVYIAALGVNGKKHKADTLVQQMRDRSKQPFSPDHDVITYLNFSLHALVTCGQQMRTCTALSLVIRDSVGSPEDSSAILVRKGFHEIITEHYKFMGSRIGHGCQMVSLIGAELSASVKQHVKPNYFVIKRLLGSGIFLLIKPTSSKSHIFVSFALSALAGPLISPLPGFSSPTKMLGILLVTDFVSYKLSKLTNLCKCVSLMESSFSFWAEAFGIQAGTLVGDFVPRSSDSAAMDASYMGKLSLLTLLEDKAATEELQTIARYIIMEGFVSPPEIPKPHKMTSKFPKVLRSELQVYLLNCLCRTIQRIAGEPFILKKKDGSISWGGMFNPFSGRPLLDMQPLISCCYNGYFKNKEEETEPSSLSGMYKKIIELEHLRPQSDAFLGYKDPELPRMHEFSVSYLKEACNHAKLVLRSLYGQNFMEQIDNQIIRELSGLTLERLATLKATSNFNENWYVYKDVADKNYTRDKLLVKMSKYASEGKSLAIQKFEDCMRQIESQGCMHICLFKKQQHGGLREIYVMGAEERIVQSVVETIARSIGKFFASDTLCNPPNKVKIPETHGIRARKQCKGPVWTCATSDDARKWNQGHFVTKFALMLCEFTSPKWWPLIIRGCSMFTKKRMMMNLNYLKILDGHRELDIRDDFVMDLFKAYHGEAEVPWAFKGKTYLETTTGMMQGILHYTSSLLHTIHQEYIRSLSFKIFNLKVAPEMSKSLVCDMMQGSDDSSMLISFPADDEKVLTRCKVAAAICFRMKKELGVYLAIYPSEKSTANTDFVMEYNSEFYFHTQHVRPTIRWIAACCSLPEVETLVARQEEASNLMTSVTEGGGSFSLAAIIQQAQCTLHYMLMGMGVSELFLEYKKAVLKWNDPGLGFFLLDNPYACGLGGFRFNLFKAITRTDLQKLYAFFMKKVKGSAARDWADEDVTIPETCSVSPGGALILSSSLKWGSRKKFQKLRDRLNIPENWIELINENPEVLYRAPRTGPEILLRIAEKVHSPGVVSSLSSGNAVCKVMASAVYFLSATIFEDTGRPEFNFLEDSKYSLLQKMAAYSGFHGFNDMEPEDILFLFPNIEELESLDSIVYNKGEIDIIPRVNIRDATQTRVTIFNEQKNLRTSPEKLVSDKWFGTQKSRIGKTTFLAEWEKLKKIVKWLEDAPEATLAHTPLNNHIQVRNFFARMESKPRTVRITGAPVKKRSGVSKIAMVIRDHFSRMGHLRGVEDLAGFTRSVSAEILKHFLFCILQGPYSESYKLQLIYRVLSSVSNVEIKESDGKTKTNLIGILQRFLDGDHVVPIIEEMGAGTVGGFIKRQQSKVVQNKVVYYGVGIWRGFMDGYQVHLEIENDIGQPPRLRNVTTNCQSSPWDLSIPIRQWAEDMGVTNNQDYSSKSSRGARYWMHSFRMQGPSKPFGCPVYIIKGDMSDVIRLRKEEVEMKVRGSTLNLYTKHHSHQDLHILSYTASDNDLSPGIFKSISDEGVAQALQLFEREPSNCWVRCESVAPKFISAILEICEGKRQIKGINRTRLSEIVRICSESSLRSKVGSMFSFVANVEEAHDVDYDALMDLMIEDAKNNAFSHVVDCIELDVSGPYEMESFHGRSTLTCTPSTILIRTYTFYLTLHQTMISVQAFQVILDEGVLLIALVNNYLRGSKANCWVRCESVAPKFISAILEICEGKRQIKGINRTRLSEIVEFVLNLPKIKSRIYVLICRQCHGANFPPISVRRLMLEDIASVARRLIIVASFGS

| Compound | CC50 (in vitro) | IC50 (RVFV strain ZH-548; [1]) | also measured |
| --- | --- | --- | --- |
| 5'-aza-2'-deoxycytidine [Decitabine] | – | – | CC50 (VERO E6 cells): > 100 µM |
| 5'-azacytidine | – | – | CC50 (VERO E6 cells): > 100 µM |
| 5'-fluoro-2'-deoxycytidine | – | – | CC50 (VERO E6 cells): > 100 µM |
| Nc1ccn([C@@H]2O[C@H](CO)[C@@H](O)[C@H]2F)c(=O)n1 [2'-fluoro-2'-deoxycytidine] | > 100 µM | 3 ± 0.3 µM | Cytotoxicity (VERO E6 cells): nontoxic in selected concentration range; IC50 (RVFV strain ZH-548; [2]): 2.4 to 3.9 µM; IC50 (RVFV L protein): 5.9 ± 1.1 µM |
| Nc1ncnc2c1ncn2[C@@H]1O[C@H](CO)[C@@H](O)[C@H]1F [2´-fluoro-2´-deoxyadenosine] | > 100 µM | > 100 µM | – |
| Nc1nc2c(ncn2[C@@H]2O[C@H](CO)[C@@H](O)[C@H]2F)c(=O)[nH]1 [2´-fluoro-2´-deoxyguanosine] | > 100 µM | 23 ± 3 µM | – |
| Cc1cn([C@@H]2O[C@H](CO)[C@@H](O)[C@H]2F)c(=O)[nH]c1=O [2´-fluoro-2´-deoxythymidine] | > 100 µM | > 100 µM | – |
| O=c1ccn([C@@H]2O[C@H](CO)[C@@H](O)[C@H]2F)c(=O)[nH]1 [2´-fluoro-2´-deoxyuridine] | > 100 µM | > 100 µM | – |
| COC(=O)OCOc1c2n(ccc1=O)N([C@@H]1c3ccccc3SCc3c1ccc(F)c3F)[C@@H]1COCCN1C2=O [Baloxavir Marboxil] | > 100 µM | > 100 µM | – |
| Nc1ccn(C[C@@H](CO)OCP(=O)(O)O)c(=O)n1 [Cidofovir] | > 100 µM | > 100 µM | Activity against RVFV in cell culture (RVFV strain ZH-548): no effect |
| Nc1ccn([C@@H]2C=C(CO)[C@@H](O)[C@H]2O)c(=O)n1 [Cyclopentenylcytosine] | > 100 µM | > 100 µM | – |
| O=c1ccn([C@@H]2C=C(CO)[C@@H](O)[C@H]2O)c(=O)[nH]1 [Cyclopentenyluracil] | > 100 µM | > 100 µM | – |
| Nc1ccn([C@@H]2O[C@H](CO)[C@@H](O)[C@@H]2O)c(=O)n1 [Cytarabine, Cytosine arabinoside] | > 100 µM | > 100 µM | – |
| COc1c(-c2ccc3cc(NS(C)(=O)=O)ccc3c2)cc(-n2ccc(=O)[nH]c2=O)cc1C(C)(C)C [Dasabuvir] | 26 ± 7 µM | > 100 µM | Activity against RVFV in cell culture (RVFV strain ZH-548): lacked activity |
| O=c1nc(NO)ccn1[C@@H]1O[C@H](CO)[C@@H](O)[C@H]1O [EIDD-1931] | > 100 µM | 2 ± 0.3 µM | Cytotoxicity (VERO E6 cells): nontoxic in selected concentration range; IC50 (RVFV strain ZH-548; [2]): 1.5 to 2.8 µM; IC50 (RVFV L protein): 1.6 ± 0.2 µM |
| Nc1nc(=O)n([C@@H]2CS[C@H](CO)O2)cc1F [Emtricitabine] | > 100 µM | > 100 µM | – |
| NC(=O)c1nc(F)c[nH]c1=O [Favipiravir] | > 100 µM | 37 ± 6 µM | – |

| Compound | CC50 (in vitro) | IC50 (RVFV strain ZH-548; [1]) | also measured |
| --- | --- | --- | --- |
| CCCCCCCC/C=C/CCCCCCCC(=O)OC[C@H]1O[C@@H](n2ccc(N)nc2=O)C(F)(F)[C@@H]1O [Gemcitabine elaidate] | > 100 µM | > 100 µM | – |
| Nc1ccn([C@@H]2O[C@H](CO)[C@@H](O)C2(F)F)c(=O)n1 [Gemcitabine, 2'-deoxy-2',2'-difluorocytidine] | > 100 µM | > 100 µM | – |
| CCCC(CCC)C(=O)Nc1ccn([C@@H]2O[C@H](CO)[C@@H](O)C2(F)F)c(=O)n1 [LY-2334737] | > 100 µM | > 100 µM | – |
| Nc1ccn([C@@H]2CS[C@H](CO)O2)c(=O)n1 [Lamivudine] | > 100 µM | > 100 µM | – |
| CC(C)C(=O)OC[C@H]1O[C@@H](n2ccc(NO)nc2=O)[C@H](O)[C@@H]1O [Molnupiravir] | > 100 µM | 27 ± 4 µM | – |
| CC(=O)Nc1ccn([C@@H]2O[C@H](CO)[C@@H](O)[C@H]2F)c(=O)n1 [N4-acetyl-2'-fluoro-2'-deoxycytidine] | > 100 µM | 20 ± 3 µM | – |
| O=C(Nc1ccn([C@@H]2O[C@H](CO)[C@@H](O)[C@H]2F)c(=O)n1)c1ccccc1 [N4-benzoyl-2'-fluoro-2'-deoxycytidine] | > 100 µM | 34 ± 4 µM | – |
| C[C@@]1(F)[C@H](O)[C@@H](CO)O[C@H]1n1ccc(N)nc1=O [PSI-6130, 2'-deoxy-2'-fluoro-2'-C-methylcytidine] | > 100 µM | > 100 µM | – |
| O=C(O)[C@H]1C2CCC(CC2)[C@@H]1Nc1nc(-c2c[nH]c3ncc(F)cc23)ncc1F [Pimodivir] | > 100 µM | > 100 µM | – |
| CCC(CC)COC(=O)[C@H](C)N[P@](=O)(OC[C@H]1O[C@@](C#N)(c2ccc3c(N)ncnn23)[C@H](O)[C@@H]1O)Oc1ccccc1 [Remdesivir] | > 100 µM | > 100 µM | Activity against RVFV in cell culture (RVFV strain ZH-548): no effect |
| NC(=O)c1ncn([C@@H]2O[C@H](CO)[C@@H](O)[C@H]2O)n1 [Ribavirin] | > 100 µM | 55 ± 9 µM | – |
| CC(C)OC(=O)[C@H](C)N[P@](=O)(OC[C@H]1O[C@@H](n2ccc(=O)[nH]c2=O)[C@](C)(F)[C@@H]1O)Oc1ccccc1 [Sofosbuvir] | > 100 µM | > 100 µM | Activity against RVFV in cell culture (RVFV strain ZH-548): lacked activity |
| Cc1cn([C@H]2C=C[C@@H](CO)O2)c(=O)[nH]c1=O [Stavudine] | > 100 µM | > 100 µM | – |
| NC(=O)c1nccnc1O [T-1105] | > 100 µM | > 100 µM | – |
| CC(C)OC(=O)[C@H](C)N[P@](=O)(CO[C@H](C)Cn1cnc2c(N)ncnc21)Oc1ccccc1 [Tenofovir Alafenamide] | > 100 µM | > 100 µM | – |
| Cc1cn([C@H]2C[C@H](N=[N+]=[N-])[C@@H](CO)O2)c(=O)[nH]c1=O [Zidovudine] | > 100 µM | > 100 µM | – |
